# Earlier results, collected in patent US11826320B2, “Treating COVID 19 by using a mixture of cannabinoids in micellized form to lower levels of pro-inflammatory cytokines and reduce risk of cytokine storm” (WSMEF, LLC, priority 2020, dated 2023).
# Assays:
# cannabinoid CB2 receptor = cannabinoid CB2 receptor (Homo sapiens, UniProt P34972)
# SARS-CoV-2 = details: purified CBD
# [1] = target: T1, serotonin 5-HT1A receptor (Homo sapiens, UniProt P08908)
# T1 sequence (P08908 1-422): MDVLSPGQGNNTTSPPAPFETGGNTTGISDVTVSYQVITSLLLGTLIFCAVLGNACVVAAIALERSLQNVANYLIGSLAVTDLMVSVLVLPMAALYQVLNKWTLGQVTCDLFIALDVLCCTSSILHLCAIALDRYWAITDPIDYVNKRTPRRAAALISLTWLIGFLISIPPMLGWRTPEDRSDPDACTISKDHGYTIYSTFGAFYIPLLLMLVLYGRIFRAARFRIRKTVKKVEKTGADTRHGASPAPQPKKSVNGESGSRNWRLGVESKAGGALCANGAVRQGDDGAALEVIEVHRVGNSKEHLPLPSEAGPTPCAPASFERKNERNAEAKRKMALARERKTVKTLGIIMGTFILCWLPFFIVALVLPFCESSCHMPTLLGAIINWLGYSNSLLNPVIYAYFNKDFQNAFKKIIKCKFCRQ
# δ-opioid receptor = δ-opioid receptor (Homo sapiens, UniProt P41143)
# μ-opioid receptor = μ-opioid receptor (Homo sapiens, UniProt P35372)
# μ-opioid receptor, sequence (P35372 whole entry): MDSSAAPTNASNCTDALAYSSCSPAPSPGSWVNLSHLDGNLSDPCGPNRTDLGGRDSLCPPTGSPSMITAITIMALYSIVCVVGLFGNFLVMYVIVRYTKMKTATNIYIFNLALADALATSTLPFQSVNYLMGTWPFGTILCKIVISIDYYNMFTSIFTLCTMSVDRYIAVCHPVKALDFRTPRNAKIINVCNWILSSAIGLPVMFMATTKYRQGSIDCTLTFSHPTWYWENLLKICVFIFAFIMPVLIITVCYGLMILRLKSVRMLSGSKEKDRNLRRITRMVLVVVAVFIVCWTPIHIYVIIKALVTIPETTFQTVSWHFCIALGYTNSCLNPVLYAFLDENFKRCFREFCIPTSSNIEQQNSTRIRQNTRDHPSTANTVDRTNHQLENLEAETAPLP
# δ-opioid receptor, sequence (P41143 whole entry): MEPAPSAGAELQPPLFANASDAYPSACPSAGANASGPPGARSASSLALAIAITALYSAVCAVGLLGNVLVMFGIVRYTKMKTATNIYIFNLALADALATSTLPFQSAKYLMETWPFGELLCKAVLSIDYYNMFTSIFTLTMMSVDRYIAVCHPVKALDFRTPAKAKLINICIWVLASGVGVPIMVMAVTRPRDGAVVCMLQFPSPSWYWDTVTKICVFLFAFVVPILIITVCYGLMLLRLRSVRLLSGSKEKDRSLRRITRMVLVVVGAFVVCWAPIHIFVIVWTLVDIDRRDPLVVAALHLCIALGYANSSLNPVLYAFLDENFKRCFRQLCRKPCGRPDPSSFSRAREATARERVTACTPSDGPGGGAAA
# cannabinoid CB2 receptor, sequence (P34972 whole entry): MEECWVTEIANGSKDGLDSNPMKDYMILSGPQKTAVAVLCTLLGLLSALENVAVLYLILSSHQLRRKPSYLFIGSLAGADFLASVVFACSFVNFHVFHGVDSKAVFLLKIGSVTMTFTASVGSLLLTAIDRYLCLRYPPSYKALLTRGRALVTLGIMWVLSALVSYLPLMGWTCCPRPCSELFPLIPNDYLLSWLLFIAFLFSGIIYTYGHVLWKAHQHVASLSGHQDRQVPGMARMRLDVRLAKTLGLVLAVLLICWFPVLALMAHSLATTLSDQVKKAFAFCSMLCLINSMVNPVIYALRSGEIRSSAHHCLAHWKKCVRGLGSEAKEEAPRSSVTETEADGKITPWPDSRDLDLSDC
smiles,measurement,setting,value
"C=C(C)[C@@H]1CCC(C)=C[C@H]1c1c(O)cc(CCCCC)cc1O [CBD, cannabidiol]",affinity for CB2 receptor,cannabinoid CB2 receptor,low affinity
same,replication of SARS-CoV-2,SARS-CoV-2,inhibits replication
same,action at 5-HT1A receptor,[1],partial agonist
same,action at δ-opioid receptor,δ-opioid receptor,allosteric modulator
same,action at μ-opioid receptor,μ-opioid receptor,allosteric modulator
